Reference: US20140314857A1, “FORMULATIONS FOR ENHANCED BIOAVAILABILITY OF ZANAMIVIR” (priority 2012, published 2014)
Several values for one entry are separate records, joined by “and”; a condition that tells them apart may be missing. Equal values may be shown once.

Assay: Intravenous and intraduodenal bioavailability of zanamivir from three formulations (Example 5)
Conditions: for C0: extrapolated to t = 0; for concentration at 0.25 hr / concentration at 0.5 hr / concentration at 0.83 hr / concentration at 1 hr / concentration at 1.5 hr / concentration at 2 hr / concentration at 0.033 hr / concentration at 0.083 hr: 1.5 mg/animal, Plasma concentration; for clearance: CL; for Vd: Vss
Source text: Male Sprague-Dawley rats (Hilltop Labs), 3 animals per treatment group, 250-350 grams in weight, were fitted with a jugular vein cannula (JVC). Animals intended for intraduodenal dosing were also fitted with one or more intraduodenal cannula (IDC) and those intended for intravenous dosing were fitted with a second JVC. Food was withheld from the animals for a minimum of twelve hours prior to test article administration and was returned approximately four hours post-dose. Water was supplied ad libitum.
Intraduodenal doses composed of 1.5 mg of zanamivir and varying amounts of an enhancer (glycerol or Capmul MCM L8) were injected directly into the duodenum via the IDC. Intravenous dosing was conducted by the injection of 1.5 mg of zanamivir in 200 μL of PBS through a JVC. For some experiments, the absorption enhancer was administered intraduodenally 2 hr prior to administering 1.5 mg of zanamivir in PBS through a second IDC. Each intraduodenal dose was followed with the introduction of a small air bubble (˜10 μL) in the cannula followed by a flush of 125 μL of PBS to ensure the dose was given in full. The volume of PBS used for cannula flush was consistent across the treatment groups. The cannula was tied to prevent the PBS remaining in the cannula from entering the duodenum.
Blood samples collected via the JVC, approximately 400 μL each, were obtained at 2 min, 5 min, 15 min, 30 min, 60 min, 90 min, and 120 min, with sodium heparin used as an anti-coagulant. Each sample was placed into a chilled tube containing the anticoagulant and kept on ice until centrifugation at 4° C., 3,000×g, for 5 min. The plasma supernatants were stored at −70° C. until LC-MS analysis.
Dosing solution samples were assayed by LC-MS/MS using electrospray ionization. The chromatographic system consisted of Perkin Elmer series 200 micropumps and autosampler equipped with a Waters Atlantic® HILIC Silica 3 μM, 2.1×50 mm column. The mass spectrometer was a PE Sciex API 4000 with electrospray interface in multiple reaction monitoring mode. […] Stock solutions (1 mg/mL zanamivir) were prepared in water. Standards (eight concentrations) were prepared in the appropriate matched matrix (HBSSg or Sprague-Dawley rat plasma containing sodium heparin) and diluted 50-fold with methanol. Experimental samples were treated identically.
Standards and samples were prepared in Sprague Dawley rat plasma containing sodium heparin as an anticoagulant. An eight-point calibration curve was prepared at concentrations of 1000, 750, 500, 250, 100, 50, 25, and 10 ng/mL by serial dilution. Standard samples were treated identically to the study samples.
Plasma samples were extracted by protein precipitation in methanol.
In this example, the bioavailability of Zanamivir was evaluated after intravenous and intraduodenal doses in male Sprague-Dawley rats. The test compound was dosed at 1.5 mg/animal through intravenous and intraduodenal routes from different formulations. Plasma levels were determined by LC-MS/MS analysis. Pharmacokinetic parameters were estimated by a non-compartmental model using WinNonlin v4.1 software.

[1] = IV 1.5 mg/animal, Normal Saline, Ex.5, individual rats
[2] = male, Sprague-Dawley, rat, in vivo, ID 1.5 mg/animal, Capmul MCM L8 50 µL, Ex.5, mean
[3] = male, Sprague-Dawley, rat, in vivo, ID 1.5 mg/animal, Glycerol 50 µL, individual rats
[4] = male, Sprague-Dawley, rat, in vivo, ID 1.5 mg/animal, Glycerol 50 µL, mean
[5] = male, Sprague-Dawley, rat, in vivo, ID 1.5 mg/animal, PBS 50 µL, mean
[6] = male, Sprague-Dawley, rat, in vivo, ID 1.5 mg/animal, PBS 50 µL, individual rats
[7] = male, Sprague-Dawley, rat, in vivo, ID 1.5 mg/animal, PBS, 50 µL blank glycerol -2 hr, individual rats
[8] = male, Sprague-Dawley, rat, in vivo, ID 1.5 mg/animal, PBS, 50 µL blank glycerol -2 hr, mean
[9] = male, Sprague-Dawley, rat, in vivo, iv, 1.5 mg, IV 1.5 mg/animal, Normal Saline, Ex.5, individual rats
[10] = male, Sprague-Dawley, rat, in vivo, iv, 1.5 mg, IV 1.5 mg/animal, Normal Saline, Ex.5, mean
[11] = male, Sprague-Dawley, rat, in vivo, iv, IV 1.5 mg/animal, Normal Saline, Ex.5, individual rats
[12] = male, Sprague-Dawley, rat, in vivo, iv, IV 1.5 mg/animal, Normal Saline, Ex.5, mean

With CC(=O)NC1C(NC(=N)N)C=C(C(=O)O)OC1C(O)C(O)CO (stereo not shown) [Zanamivir, 5-acetamido-4-guanidino-6-(1,2,3-trihydroxypropyl)-5,6-dihydro-4H-pyran-2-carboxylic acid] the T1/2 (ID 1.5 mg/animal, Capmul MCM L8 50 µL, Ex.5, individual rats) was 27 min and 33 min, the t1/2 (ID 1.5 mg/animal, PBS, 50 µL blank glycerol -2 hr, individual rats) was 39.6 min and 110 min and the Plasma concentration (IV 1.5 mg/animal, Normal Saline, Ex.5, 0.083 hr, individual rats) was 17900 ng/mL and 16300 ng/mL. The C0 [1] was 26943 ng/mL and 32278 ng/mL, the CL [1] was 7.83 mL/min/kg and 8.67 mL/min/kg and the Vss [1] was 0.26 L/kg. For the same molecule, the t1/2 [1] was 27.6 min, the half-life (male, Sprague-Dawley, rat, in vivo, 1.5 mg, T1/2, ID 1.5 mg/animal, Capmul MCM L8 50 µL, Ex.5, individual rats) was 28.2 min and the half-life (male, Sprague-Dawley, rat, in vivo, 1.5 mg, T1/2, ID 1.5 mg/animal, Capmul MCM L8 50 µL, Ex.5, mean) was 29.4 min. For the same molecule, the half-life (male, Sprague-Dawley, rat, in vivo, 1.5 mg, t1/2, ID 1.5 mg/animal, Glycerol 50 µL, individual rats) was 17.4 min, the half-life (male, Sprague-Dawley, rat, in vivo, 1.5 mg, t1/2, ID 1.5 mg/animal, Glycerol 50 µL, mean) was 17.4 min and the half-life (male, Sprague-Dawley, rat, in vivo, 1.5 mg, t1/2, ID 1.5 mg/animal, PBS 50 µL, individual rats) was 49.8 min. The half-life (male, Sprague-Dawley, rat, in vivo, 1.5 mg, t1/2, ID 1.5 mg/animal, PBS 50 µL, mean) was 49.8 min, the half-life (male, Sprague-Dawley, rat, in vivo, 1.5 mg, t1/2, ID 1.5 mg/animal, PBS, 50 µL blank glycerol -2 hr, mean) was 74.4 min and the Tmax (male, Sprague-Dawley, rat, in vivo, 1.5 mg, ID 1.5 mg/animal, Glycerol 50 µL, mean) was 30 min. The Tmax (male, Sprague-Dawley, rat, in vivo, 1.5 mg, ID 1.5 mg/animal, PBS 50 µL, individual rats) was 30 min, the Tmax (male, Sprague-Dawley, rat, in vivo, 1.5 mg, ID 1.5 mg/animal, PBS 50 µL, mean) was 30 min and the Tmax (male, Sprague-Dawley, rat, in vivo, 1.5 mg, ID 1.5 mg/animal, PBS, 50 µL blank glycerol -2 hr, mean) was 34.8 min. The concentration at 0.25 hr [2] was 4350 ng/mL, the concentration at 0.5 hr [2] was 2910 ng/mL and the concentration at 0.83 hr [2] was 7230 ng/mL. It also gave a concentration at 1 hr [2] of 1080 ng/mL, a concentration at 1.5 hr [2] of 578 ng/mL and a concentration at 2 hr [2] of 274 ng/mL. For the same molecule, the concentration at 0.25 hr [3] was 1060 ng/mL, the concentration at 0.25 hr [4] was 928 ng/mL and the concentration at 0.5 hr [3] was 817 ng/mL. It also gave a concentration at 0.5 hr [4] of 744 ng/mL, a concentration at 0.83 hr [3] of 123 ng/mL and a concentration at 0.83 hr [4] of 102 ng/mL. For the same molecule, the concentration at 1 hr [4] was 415 ng/mL, the concentration at 1.5 hr [3] was 123 ng/mL and the concentration at 1.5 hr [4] was 93 ng/mL. For the same molecule, the concentration at 2 hr [3] was 52.1 ng/mL, the concentration at 2 hr [4] was 61 ng/mL and the concentration at 0.25 hr [5] was 96 ng/mL. It also gave a concentration at 0.5 hr [5] of 134 ng/mL, a concentration at 0.83 hr [5] of 38.7 ng/mL and a concentration at 1 hr [5] of 86.4 ng/mL. It also gave a concentration at 1.5 hr [6] of 59.6 ng/mL, a concentration at 1.5 hr [5] of 61.1 ng/mL and a concentration at 2 hr [6] of 60.2 ng/mL. It also gave a concentration at 2 hr [5] of 52.1 ng/mL, a concentration at 0.25 hr [7] of 60.9 ng/mL and a concentration at 0.25 hr [8] of 59.3 ng/mL. It also gave a concentration at 0.5 hr [8] of 66.3 ng/mL, a concentration at 0.83 hr [7] of 55.3 ng/mL and a concentration at 0.83 hr [8] of 52.2 ng/mL. The concentration at 1 hr [8] was 63.7 ng/mL, the concentration at 1.5 hr [8] was 47.5 ng/mL and the concentration at 2 hr [8] was 51.4 ng/mL. It also gave a bioavailability (male, Sprague-Dawley, rat, in vivo, inherent absolute bioavailability) of under 2%, a C0 (male, Sprague-Dawley, rat, in vivo, iv, 1.5 mg, C0, IV 1.5 mg/animal, Normal Saline, Ex.5, individual rats) of 33400 ng/mL and a C0 (male, Sprague-Dawley, rat, in vivo, iv, 1.5 mg, C0, IV 1.5 mg/animal, Normal Saline, Ex.5, mean) of 30900 ± 3440 ng/mL. For the same molecule, the clearance [9] was 8.17 mL/min/kg, the clearance [10] was 8.17 mL/min/kg and the Vd [9] was 0.21 L/kg. The Vd [10] was 0.24 ± 0.02 L/kg, the half-life (male, Sprague-Dawley, rat, in vivo, iv, 1.5 mg, t1/2, IV 1.5 mg/animal, Normal Saline, Ex.5, individual rats) was 30.6 min and the half-life (male, Sprague-Dawley, rat, in vivo, iv, 1.5 mg, t1/2, IV 1.5 mg/animal, Normal Saline, Ex.5, mean) was 29.4 ± 1.8 min. For the same molecule, the Tmax [9] was 0 min, the Tmax [10] was 0 min and the concentration at 0.033 hr [11] was 26900 ng/mL. For the same molecule, the concentration at 0.033 hr [12] was 24800 ng/mL, the concentration at 0.083 hr (male, Sprague-Dawley, rat, in vivo, iv, IV 1.5 mg/animal, Normal Saline, Ex.5, 0.083 hr, individual rats) was 19400 ng/mL and the concentration at 0.083 hr (male, Sprague-Dawley, rat, in vivo, iv, IV 1.5 mg/animal, Normal Saline, Ex.5, 0.083 hr, mean) was 17900 ng/mL. For the same molecule, the concentration at 0.25 hr [11] was 11700 ng/mL, the concentration at 0.25 hr [12] was 11200 ng/mL and the concentration at 0.5 hr [11] was 6610 ng/mL. The concentration at 0.5 hr [12] was 6450 ng/mL, the concentration at 1 hr [11] was 1650 ng/mL and the concentration at 1 hr [12] was 2100 ng/mL. The concentration at 1.5 hr [11] was 709 ng/mL, the concentration at 1.5 hr [12] was 817 ng/mL and the concentration at 2 hr [11] was 423 ng/mL. The concentration at 2 hr [12] was 513 ng/mL.
